Results published in BindingDB's records for doi:10.1016/j.ejmech.2020.113033 (Leiden University, 2021).

Experiment: Displacement of [3H]dofetilide from human ERG stably expressed in HEK293 cell membranes assessed as unlabelled dofetilide IC50 at 0.5 uM measured after 60 mins by microbeta liquid scintillation counting method (Rvb = 9.1 to 11.7 nM)

With `O=C(COc1ccc(C(=O)c2cc(Cl)ccc2Br)cc1)Nc1ccnc(C(=O)NCC2CC2)c1` as the compound, how does the IC50 read?
The IC50 was 18 nM.

Experiment: Displacement of [3H]dofetilide from human ERG stably expressed in HEK293 cell membranes assessed as unlabelled dofetilide IC50 at 1 uM measured after 60 mins by microbeta liquid scintillation counting method (Rvb = 9.1 to 11.7 nM)

Which IC50 does the source give for `O=C(COc1ccc(C(=O)c2cc(Cl)ccc2Br)cc1)Nc1cncc(C(=O)NCC2CC2)c1` here?
The IC50 was 20 nM.

Experiment: Displacement of [3H]dofetilide from human ERG stably expressed in HEK293 cell membranes assessed as unlabelled dofetilide IC50 at 3 uM measured after 60 mins by microbeta liquid scintillation counting method (Rvb = 9.1 to 11.7 nM)

With `N#Cc1cccc(NC(=O)COc2ccc(C(=O)c3cc(Cl)ccc3Br)cc2)c1F` as the compound, how does the IC50 read?
The IC50 was 13 nM.

For `O=C(COc1ccc(C(=O)c2cc(Cl)ccc2Br)cc1)Nc1cccnc1`, which IC50 is on record?
The IC50 was 35 nM.

Which IC50 does the source give for `O=C(COc1ccc(C(=O)c2cc(Cl)ccc2Br)cc1)Nc1ccc(Cl)c(C(=O)NCC2CC2)c1` here?
The IC50 was 18 nM.

For `O=C(COc1ccc(C(=O)c2cc(Cl)ccc2Br)cc1)Nc1cccc(C(=O)NC2CC2)c1`, which IC50 is on record?
The IC50 was 11 nM.

For `Cc1cc(NC(=O)COc2ccc(C(=O)c3cc(Cl)ccc3Br)cc2)ccn1`, which IC50 is on record?
The IC50 was 60 nM.

Experiment: Displacement of [3H]dofetilide from human ERG stably expressed in HEK293 cell membranes assessed as unlabelled dofetilide IC50 at 10 uM measured after 60 mins by microbeta liquid scintillation counting method (Rvb = 9.1 to 11.7 nM)

Which IC50 does the source give for `O=C(COc1ccc(C(=O)c2cc(Cl)ccc2Br)cc1)Nc1cccc(C(=O)NCC2CC2)c1` here?
Its IC50 is 26 nM.

With `O=C(COc1ccc(C(=O)c2ccccc2Br)cc1)Nc1cccnc1` as the compound, how does the IC50 read?
The IC50 was 36 nM.

Which IC50 does the source give for `O=C(COc1ccc(C(=O)c2cc(Cl)ccc2Br)cc1)Nc1ccnc(F)c1` here?
Its IC50 is 18 nM.

Which IC50 does the source give for `N#Cc1cc(NC(=O)COc2ccc(C(=O)c3cc(Cl)ccc3Br)cc2)ccc1F` here?
The IC50 was 70 nM.

Which IC50 does the source give for `CNC(=O)c1cccc(NC(=O)COc2ccc(C(=O)c3cc(Cl)ccc3Br)cc2)c1` here?
The IC50 was 22 nM.
